Results on 13 compounds are retold here after US11242344B2, “(4-hydroxypyrrolidin-2-yl)-heterocyclic compounds and methods of use thereof” (Genentech, Inc., priority 2017, dated 2022).

The target of experiment [1] is VHL Elongin B/C complex (Homo sapiens (Human), UniProt P40337). In words: Fluorescence Polarization (FP) VHL Binding Assay. The following applies: VHL binding, FP assay; geometric mean where more than one measurement. How it is done:
The binding of test compounds to the VHL Elongin B/C complex was measured using a fluorescence polarization tracer competition assay. The VHL/Elongin B/C protein complex used in the assay was generated as follows. The coding region for amino acids E55-D213 of human VHL with N-terminal His6 tag with a TEV-protease cleavage site was co-expressed with Elongin B (residues M1-Q118) and Elongin C (Residues M17-C112) in E. coli. […] The purified VHL/Elongin B/C complex was dialyzed into formulation buffer: 20 mM Bis-Tris pH7.0, 150 mM NaCl, 1 mM DTT. A VHL fluorescence polarization probe (prepared in Example 91), consisted of a VHL ligand coupled to carboxytetramethylrhodamine (TAMRA); […] Compounds were prepared as a serial dilution in DMSO at a concentration 25-fold higher than the final desired concentration and acoustically dispensed (400 nl) into a ProxiPlate-384 Plus F, Black 384-shallow well Microplate (Part Number 6008260). DMSO was dispensed into wells designated for “VHL control” (without compound) wells. The “Assay Buffer” consisted of 50 mM Tris pH 8.0, 120 mM NaCl, 0.005% Nonidet P-40, and 1% DMSO (v/v). Assay Buffer containing […] VHL Elongin B/C complex was prepared and 5 μl dispensed using a BioRapTR (Beckman Coulter) into each well of the assay plate. Assay Buffer was also dispensed into “no VHL control” wells using the same method. A “pre-assay” fluorescence measurement was made using an Infinite® M1000 (Tecan) plate reader (Excitation 530 nm, Emission 574 nm, Bandwidth 10 nm). Assay Buffer containing 3.34 nM of the VHL FP probe was prepared in Assay Buffer and 5 μl dispensed into each well of the assay plate using a BioRapTR (Beckman Coulter). The final VHL/Elongin B/C protein concentration is 2.64 nM and the final probe concentration is 1.67 nM. Assay plates were briefly centrifuged and incubated for 1 hour at room temperature. “Post-assay” fluorescence polarization measurements were made as described for the “pre-assay” fluorescence measurement. Fluorescence polarization was calculated for each sample; taking into account the “pre-assay” fluorescence measurements and subtracting the fluorescence signal of the compound/VHL only (“pre-assay”) measurements from the “post-assay” fluorescence polarization measurements, for each plane of polarization. The data were analyzed using Genedata Screener software and normalized to the “no VHL control” and “VHL control” (without compound). IC50 values were calculated using a four parameter curve fit (Robust method).
For orientation: Polarisation of emitted light reports the rotation of a fluorescent probe.

Experiment [2] addresses NanoLuc VHL fusion protein (Homo sapiens (Human), UniProt P40337). Nature of the experiment: VHL HEK-293 BRET Assay (NanoBRET Target Engagement). The experiment is classed as cell-based. As to conditions: geometric mean where more than one measurement. On the procedure:
The VHL NanoBRET™ Target Engagement Assay analyzes the apparent affinity of test compounds for VHL in cells by competitive displacement of a VHL NanoBRET™ tracer reversibly bound to a NanoLuc® VHL fusion protein stably expressed in the cells. Test compounds were transferred to the assay plate (384 Well White Non-Binding Corning Assay Plates (Corning-3574)) using an Echo 555 Liquid Handler (Labcyte) in 2.5 nL increments and, as appropriate, intermediate stock concentrations of compounds, in order to prepare a titration series. 50 nL of control compound (10 mM; parental unlabeled VHL antagonist; see structure below) and 50 nL of DMSO (negative control) were dispensed into the appropriate control wells. DMSO was backfilled to a final volume of 50 nL as required. 50 nl per well of 1 mM VHL NanoBRET™ Tracer in DMSO (NanoBRET™ Tracer-PEG2-590 (see structure below)) was transferred into each well using an Echo 555 (ultimately yielding a final concentration of 1 uM). HEK 293 RT VHL-NanoLuc® stable cells were cultured in DMEM High Glucose with Pyruvate, 10% fetal bovine serum, 2 mg/mL of Geneticin Selective Antibiotic (50 mg/ml) and 2 mM HEPES (1 M). Cells were seeded in Opti-MEM (Life Technologies-11058-021), 1.7×10^5 cells/mL, 40 μl per well into the assay plate, centrifuged at 500 rpm for 30 seconds and incubated for 2 hours. Max Signal control wells consisted of DMSO only treated wells. Minimum Signal control wells contained of 10 uM parental unlabeled VHL antagonist (control compound—see structure below). 3× Complete Substrate plus Inhibitor Solution was prepared in Opti-MEM (consists of a 1:166 dilution of NanoBRET™ Nano-Glo® Substrate plus a 1:500 dilution of Extracellular NanoLuc® Inhibitor in Opti-MEM), and 20 ul was dispensed into each well of the 384-well plate and centrifuged at 1000 rpm for 1 minute, then incubated for 2 minutes at room temperature. Background Signal control wells were prepared without tracer for background correction steps. Plates were read using a PerkinElmer Envision Reader (model 2104-0020) equipped with Luminescence option (Mirror: BRET2 Enh (PE Barcode 659), Emission Filter: Omega 610LP (Barcode 504), 2nd Emission Filter: Umbelliferone 460 (Barcode 207), Measurement height: 6.5 mm, Measurement time: 1 s). The raw BRET ratio values were calculated by dividing the acceptor emission value (610 nm) by the donor emission value (460 nm) for each sample. To correct for background, the BRET ratio in the absence of tracer (average of no-tracer control samples) was subtracted from the BRET ratio of each sample. Raw BRET units were converted to milliBRET units (mBU) by multiplying each raw BRET value by 1,000. The normalized NanoBRET™ signal was calculated relative to the Max Signal control wells (DMSO treated control wells) and the Minimum Signal control wells. Percentage inhibition was calculated relative to the Minimum Signal control and Maximum Signal control wells. IC50 values were derived by four parameter curve fitting using the Robust method.
Background: Bioluminescence resonance energy transfer reports proximity on the nanometre scale.

Chain of NanoLuc VHL fusion protein (P40337 whole entry, looked up, the tested form may be a part): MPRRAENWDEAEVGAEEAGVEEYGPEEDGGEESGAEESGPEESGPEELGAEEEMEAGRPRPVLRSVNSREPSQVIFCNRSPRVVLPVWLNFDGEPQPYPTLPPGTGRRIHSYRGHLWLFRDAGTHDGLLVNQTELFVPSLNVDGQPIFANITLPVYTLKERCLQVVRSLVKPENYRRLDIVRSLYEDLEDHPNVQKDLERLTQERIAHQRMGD
Chain of NanoLuc VHL fusion protein (Q15370 whole entry partner, looked up, the tested form may be a part): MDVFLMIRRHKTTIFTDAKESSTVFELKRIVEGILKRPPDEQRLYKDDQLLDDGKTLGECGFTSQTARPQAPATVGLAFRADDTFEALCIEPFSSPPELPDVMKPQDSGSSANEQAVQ
Chain of NanoLuc VHL fusion protein (Q15369 whole entry partner, looked up, the tested form may be a part): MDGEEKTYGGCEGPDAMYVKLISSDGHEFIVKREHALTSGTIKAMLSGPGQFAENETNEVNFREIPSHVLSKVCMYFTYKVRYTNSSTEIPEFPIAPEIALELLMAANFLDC
Chain of VHL Elongin B/C complex (P40337 whole entry, looked up, the tested form may be a part): as the sequence (P40337 whole entry, looked up, the tested form may be a part) above
Chain of VHL Elongin B/C complex (Q15370 whole entry partner, looked up, the tested form may be a part): as the sequence (Q15370 whole entry partner, looked up, the tested form may be a part) above
Chain of VHL Elongin B/C complex (Q15369 whole entry partner, looked up, the tested form may be a part): as the sequence (Q15369 whole entry partner, looked up, the tested form may be a part) above

On to `Cc1cc([C@@H](C(=O)N2C[C@H](O)CC2C2=NOC3(CCCc4ccccc43)N2)C(C)C)on1` (single isomer, unassigned) [Example 131.1], for which the IC50 (usually the midpoint of a concentration-inhibition curve) in experiment [1] was found to be 160 µM; in experiment [2], 100 µM.
Taken in the same sequence, the figures for `Cc1cc([C@@H](C(=O)N2C[C@H](O)CC2C2=NOC3(CCCc4ccccc43)N2)C(C)C)on1` (single isomer, unassigned) [Example 131.2] were 242 µM and 100 µM.
Regarding `Cc1cc([C@H](C(=O)N2C[C@H](O)CC2C2=NOC3(CCCc4ccccc43)N2)C(C)C)on1` (single isomer, unassigned) [Example 131.3], the IC50 in experiment [1] was found to be 19.6 µM; in experiment [2] it was 23 µM.
Taken in the same sequence, the figures for `Cc1cc([C@H](C(=O)N2C[C@H](O)CC2C2=NOC3(CCCc4ccccc43)N2)C(C)C)on1` (single isomer, unassigned) [Example 131.4] were 19.9 µM and 20 µM.
In the case of `Cc1cc(C(C(=O)N2C[C@H](O)CC2C2=NS(=O)(=O)CN2)C(C)C)on1` (single isomer, unassigned) [Example 137.1], the results for the IC50 in experiment [1] and in experiment [2] were not below 400 µM and not below 100 µM, respectively.
Taken in the same sequence, the figures for `Cc1cc(C(C(=O)N2C[C@H](O)CC2C2=NS(=O)(=O)CN2)C(C)C)on1` (single isomer, unassigned) [Example 137.2] were 47.3 µM and not below 100 µM.
Regarding `Cc1cc(C(C(=O)N2C[C@H](O)CC2C2=NS(=O)(=O)CN2)C(C)C)on1` (single isomer, unassigned) [Example 137.3], the IC50 was not below 400 µM in experiment [1] and not below 100 µM in experiment [2].
For `Cc1cc(C(C(=O)N2C[C@H](O)C[C@H]2C2=NO[C@](C)(c3ccc(-c4ccccc4F)cc3)N2)C(C)C)on1` (single isomer, unassigned) [Example 139.1] the same measures were 10 µM and 21.7 µM.
For `Cc1cc(C(C(=O)N2C[C@H](O)C[C@H]2C2=NO[C@](C)(c3ccc(-c4ccccc4F)cc3)N2)C(C)C)on1` (single isomer, unassigned) [Example 139.2] the same measures were 0.0628 µM and 0.0678 µM.
With `C#Cc1cccc(Nc2ncnc3cc(OCCOC)c(OCCOCC#CC#CCOc4cc(C(C(=O)N5C[C@H](O)CC5C5=NC(=O)[C@](C)(c6ccc(-c7scnc7C)cc6)N5)C(C)C)on4)cc23)c1` (single isomer, unassigned) [Example 1004.1], the results for the IC50 in experiment [1] and in experiment [2] were 6.25 µM and 68.3 µM, respectively.
For `C#Cc1cccc(Nc2ncnc3cc(OCCOC)c(OCCOCC#CC#CCOc4cc(C(C(=O)N5C[C@H](O)CC5C5=NC(=O)[C@](C)(c6ccc(-c7scnc7C)cc6)N5)C(C)C)on4)cc23)c1` (single isomer, unassigned) [Example 1004.2] the same measures were 75.8 µM and 46.4 µM.
For `C#Cc1cccc(Nc2ncnc3cc(OCCOC)c(OCCOCC#CC#CCOc4cc(C(C(=O)N5C[C@H](O)CC5C5=NC(=O)[C@](C)(c6ccc(-c7scnc7C)cc6)N5)C(C)C)on4)cc23)c1` (single isomer, unassigned) [Example 1004.3] the same measures were 75.8 µM and not below 100 µM.
Taken in the same sequence, the figures for `C#Cc1cccc(Nc2ncnc3cc(OCCOC)c(OCCOCC#CC#CCOc4cc(C(C(=O)N5C[C@H](O)CC5C5=NC(=O)[C@](C)(c6ccc(-c7scnc7C)cc6)N5)C(C)C)on4)cc23)c1` (single isomer, unassigned) [Example 1004.4] were 6.25 µM and not below 100 µM.
